Test results as given in patent US9133183B2, “Imidazolidinones and analogs exhibiting anti-cancer and anti-proliferative activities” (Deciphera Pharmaceuticals, LLC, priority 2013, dated 2015).
Like-named read-outs stand apart in the source and are kept apart here.

Assays:
[1] = target: unphosphorylated c-FMS kinase (uFMS, Seq. ID no. 1) (Homo sapiens (Human), UniProt P07333); assay: uFMS kinase assay (ADP production coupled to pyruvate kinase/lactate dehydrogenase); type: biochemical; details: enzymatic assay, ATP 500 μM
Sequence of unphosphorylated c-FMS kinase (uFMS, Seq. ID no. 1) (P07333 538-972): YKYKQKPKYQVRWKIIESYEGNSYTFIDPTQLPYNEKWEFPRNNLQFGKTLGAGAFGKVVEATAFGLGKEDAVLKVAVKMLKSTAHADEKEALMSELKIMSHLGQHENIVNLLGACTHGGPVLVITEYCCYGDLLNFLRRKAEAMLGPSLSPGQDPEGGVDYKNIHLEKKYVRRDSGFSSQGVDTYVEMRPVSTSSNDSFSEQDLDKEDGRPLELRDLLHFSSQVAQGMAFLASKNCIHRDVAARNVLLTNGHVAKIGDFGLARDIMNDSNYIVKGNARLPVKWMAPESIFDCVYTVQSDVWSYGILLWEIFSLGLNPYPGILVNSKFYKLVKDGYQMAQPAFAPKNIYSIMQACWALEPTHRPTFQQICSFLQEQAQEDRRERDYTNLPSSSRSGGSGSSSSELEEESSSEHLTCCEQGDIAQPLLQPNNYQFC
Method: uFMS kinase (Seq. ID No. 1) Assay
In this assay, the oxidation of NADH (thus the decrease at A340 nm) was continuously monitored spectrophometrically. The reaction mixture (100 μL) contained FMS (purchased from Millipore) (10 nM), polyE4Y (1 mg/mL), MgCl2 (10 mM), pyruvate kinase (4 units), lactate dehydrogenase (0.7 units), phosphoenol pyruvate (1 mM), NADH (0.28 mM) and ATP (500 μM) in 90 mM Tris buffer containing 0.2% octyl-glucoside and 1% DMSO, pH 7.5. The inhibition reaction was started by mixing serial diluted test compound with the above reaction mixture. The absorption at 340 nm was monitored continuously for 4 hours at 30° C. on Synergy 2 plate reader. The reaction rate was calculated using the 3 to 4 h time frame. Percent inhibition was obtained by comparison of reaction rate with that of a control (i.e., in the absence of test compound). IC50 values were calculated from a series of percent inhibition values determined at a range of inhibitor concentrations using software routines as implemented in the GraphPad Prism software package.
uFMS Kinase Sequence (Y538-End) Used for Screening (Seq. ID No. 1)

[2] = target: unphosphorylated c-KIT kinase (uKIT, Seq. ID no. 2) (Homo sapiens (Human), UniProt P10721); assay: uKit kinase assay (coupled pyruvate kinase/lactate dehydrogenase); type: biochemical; details: enzymatic assay, ATP 2000 μM
Sequence of unphosphorylated c-KIT kinase (uKIT, Seq. ID no. 2) (P10721 other isoform, or with tags, fused parts or gaps): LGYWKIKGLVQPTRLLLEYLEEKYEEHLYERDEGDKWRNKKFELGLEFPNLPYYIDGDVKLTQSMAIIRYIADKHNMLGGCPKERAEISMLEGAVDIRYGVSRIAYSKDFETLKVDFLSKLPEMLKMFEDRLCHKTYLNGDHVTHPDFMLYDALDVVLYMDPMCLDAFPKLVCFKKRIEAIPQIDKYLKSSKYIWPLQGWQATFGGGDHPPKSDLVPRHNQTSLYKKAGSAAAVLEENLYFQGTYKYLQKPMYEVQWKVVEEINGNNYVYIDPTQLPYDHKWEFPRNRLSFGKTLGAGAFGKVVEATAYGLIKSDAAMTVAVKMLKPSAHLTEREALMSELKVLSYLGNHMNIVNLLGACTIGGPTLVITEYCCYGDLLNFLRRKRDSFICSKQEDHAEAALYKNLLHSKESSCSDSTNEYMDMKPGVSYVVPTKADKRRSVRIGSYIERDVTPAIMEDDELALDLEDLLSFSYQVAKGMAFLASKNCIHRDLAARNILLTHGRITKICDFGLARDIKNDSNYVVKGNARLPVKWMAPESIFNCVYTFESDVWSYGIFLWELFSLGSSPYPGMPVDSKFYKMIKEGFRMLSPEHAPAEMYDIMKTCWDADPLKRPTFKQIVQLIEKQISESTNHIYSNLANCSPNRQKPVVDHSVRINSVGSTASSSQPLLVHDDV
Method: uKit Kinase (Seq. ID No. 2) Assay
Activity of unphosphorylated c-KIT kinase (uKIT, Seq. ID no. 2) was determined by following the production of ADP from the KIT kinase reaction with ATP and poly E4Y as substrates through coupling with the pyruvate kinase/lactate dehydrogenase system (e.g., Schindler et al. Science (2000) 289: 1938-1942). In this assay, the oxidation of NADH (thus the decrease at A340 nm) was continuously monitored spectrophometrically. The reaction mixture (100 μl) contained unphosphorylated KIT (12 nM), polyE4Y (1 mg/mL), MgCl2 (10 mM), pyruvate kinase (4 units), lactate dehydrogenase (0.7 units), phosphoenol pyruvate (1 mM), and NADH (0.28 mM) and ATP (2000 μM) in 90 mM Tris buffer containing 0.2% octyl-glucoside and 1% DMSO, pH 7.5. The inhibition reaction was started by mixing serial diluted test compound with the above reaction mixture. The absorption at 340 nm was monitored continuously for 4 hours at 30° C. on Synergy 2 plate reader (BioTech). Reaction rates around 3 to 4 h time frame were used to calculate % inhibitions, from which IC50 values were generated.
uKit with N-Terminal GST Fusion Used for Screening (Seq ID No. 2)

M-NFS-60 cells = assay: M-NFS-60 cell proliferation assay (resazurin); type: cell-based; details: 67 h incubation
Method: M-NFS-60 cells (catalog #CRL-1838) were obtained from the American Type Culture Collection (ATCC, Manassas, Va.). Briefly, cells were grown in suspension in RPMI 1640 medium supplemented with 10% characterized fetal bovine serum (Invitrogen, Carlsbad, Calif.), 0.05 mM 2-mercaptoethanol, and 20 ng/mL mouse recombinant macrophage colony stimulating factor (M-CSF) at 37° C., 5% CO2, and 95% humidity. Cells were allowed to expand until reaching saturation at which point they were subcultured or harvested for assay use.
M-NFS-60 Cell Proliferation Assay
A serial dilution of test compound was dispensed into a 384-well black clear bottom plate (Corning, Corning, N.Y.). Two thousand five hundred cells were added per well in 50 μL complete growth medium. Plates were incubated for 67 h at 37° C., 5% CO2, and 95% humidity. At the end of the incubation period 10 μL of a 440 μM solution of resazurin (Sigma, St. Louis, Mo.) in PBS was added to each well and incubated for an additional 5 h at 37° C., 5% CO2, and 95% humidity. Plates were read on a Synergy2 reader (Biotek, Winooski, Vt.) using an excitation of 540 nm and an emission of 600 nm. IC50 values were calculated from a series of percent inhibition values determined at a range of inhibitor concentrations using software routines as implemented in the GraphPad Prism software package.

osteoclast precursors = assay: Osteoclast tartrate-resistant acid phosphatase assay; type: cell-based; details: Osteoclast, 7-14 days, RANKL and M-CSF
Method: Osteoclast Tartrate-Resistant Acid Phosphatase Assay
A serial dilution of test compound was dispensed into a 384-well black clear bottom plate (Nalge Nunc International, Rochester, N.Y.). Compound was diluted by the addition of DMEM media supplemented with 10% characterized fetal bovine serum (Invitrogen, Carlsbad, Calif.). Diluted compound was transferred to a 384-well black clear bottom plate. Two-thousand five hundred osteoclast precursors (Lonza, Walkersville, Md.) were added per well in growth media containing Receptor Activator of Nuclear Factor Kappa-beta ligand (RANKL) and M-CSF (R&D Systems, Minneapolis, Minn.). Plates were incubated for 7-14 days at 37 degrees Celsius, 5% CO2, and 95% humidity to allow differentiation of osteoclast precursors. At the end of the incubation period, 10 μL of supernatant from each well was transferred to a clear 384-well plate. Tartrate-resistant acid phosphatase activity in the supernatant samples was determined using an acid phosphatase assay kit (Sigma, St. Louis, Mo.). Absorbance was measured at 550 nm using a plate reader. Data was analyzed using Prism software (Graphpad, San Diego, Calif.) to calculate IC50 values.

Structure (SMILES) | IC50 ([1]; read-out: uFMS) | IC50 [2] | IC50 (osteoclast precursors) | IC50 (M-NFS-60 cells) | IC50 ([1]; uFMS)
Cc1cc(-c2cc(Oc3ccc(NC(=O)N4CCN(C5CCOCC5)C4=O)nc3C)ccn2)ccn1 [Example 87, N-(6-methyl-5-((2′-methyl-[2,4′-bipyridin]-4-yl)oxy)pyridin-2-yl)-2-oxo-3-(tetrahydro-2H-pyran-4-yl)imidazolidine-1-carboxamide] | < 10 nM | 10 to 100 nM | 10 to 100 nM | 10 to 100 nM | –
Cc1ncc(-c2cc(Oc3ccc(NC(=O)N4CCN(C5CC5)C4=O)nc3C)ccn2)s1 [Example 65, 3-cyclopropyl-N-(6-methyl-5-((2-(2-methylthiazol-5-yl)pyridin-4-yl)oxy)pyridin-2-yl)-2-oxoimidazolidine-1-carboxamide] | 10 to 100 nM | 100 to 1000 nM | 10 to 100 nM | 100 to 1000 nM | –
COC1(CCN2CCN(C(=O)Nc3ccc(Oc4ccnc(-c5cnn(C)c5)c4)cn3)C2=O)CC1 [Example 17, 3-(2-(1-methoxycyclopropyl)ethyl)-N-(5-((2-(1-methyl-1H-pyrazol-4-yl)pyridin-4-yl)oxy)pyridin-2-yl)-2-oxoimidazolidine-1-carboxamide] | – | – | 10 to 100 nM | 10 to 100 nM | 10 to 100 nM
CCN1CCN(C(=O)Nc2ccc(Oc3ccnc(-c4cn(C)cn4)c3)cn2)C1=O [Example 82, 3-ethyl-N-(5-((2-(1-methyl-1H-imidazol-4-yl)pyridin-4-yl)oxy)pyridin-2-yl)-2-oxoimidazolidine-1-carboxamide] | 10 to 100 nM | < 10 nM | 10 to 100 nM | 10 to 100 nM | –
Cn1cc(-c2cc(Oc3ccc(NC(=O)N4CCN(C5CCOCC5)C4=O)cc3F)ccn2)cn1 [Example 102, N-(3-fluoro-4-((2-(1-methyl-1H-pyrazol-4-yl)pyridin-4-yl)oxy)phenyl)-2-oxo-3-(tetrahydro-2H-pyran-4-yl)imidazolidine-1-carboxamide] | 10 to 100 nM | – | 100 to 1000 nM | > 1000 nM | –
CC1CN(C(=O)Nc2ccc(Oc3ccnc(-c4cnn(C)c4)c3)cn2)C(=O)N1C1CCOCC1 (centres unmarked) [Example 40, 4-methyl-N-(5-((2-(1-methyl-1H-pyrazol-4-yl)pyridin-4-yl)oxy)pyridin-2-yl)-2-oxo-3-(tetrahydro-2H-pyran-4-yl)imidazolidine-1-carboxamide] | < 10 nM | 10 to 100 nM | – | 10 to 100 nM | –
Cn1cc(-c2cc(Oc3ccc(NC(=O)N4CCN(C5CCOCC5)C4=O)c(F)c3)ccn2)cn1 [Example 95, N-(2-fluoro-4-((2-(1-methyl-1H-pyrazol-4-yl)pyridin-4-yl)oxy)phenyl)-2-oxo-3-(tetrahydro-2H-pyran-4-yl)imidazolidine-1-carboxamide] | 10 to 100 nM | – | 10 to 100 nM | 10 to 100 nM | –
Cc1c(Oc2ccnc(-c3cnn(C)c3)c2)ccc(NC(=O)N2CCN(C3CCOCC3)C2=O)c1F [Example 93, N-(2-fluoro-3-methyl-4-((2-(1-methyl-1H-pyrazol-4-yl)pyridin-4-yl)oxy)phenyl)-2-oxo-3-(tetrahydro-2H-pyran-4-yl)imidazolidine-1-carboxamide] | 10 to 100 nM | – | 10 to 100 nM | 100 to 1000 nM | –

Further lines, with some results ahead:

IC50 ([1]; read-out: uFMS) | IC50 [2] | IC50 (osteoclast precursors) | Structure (SMILES) | IC50 (M-NFS-60 cells) | IC50 ([1]; uFMS)
100 to 1000 nM | – | 10 to 100 nM | COCCN1CCN(C(=O)Nc2cc(F)c(Oc3ccnc(-c4cnn(C)c4)c3)cc2F)C1=O [Example 98, N-(2,5-difluoro-4-((2-(1-methyl-1H-pyrazol-4-yl)pyridin-4-yl)oxy)phenyl)-3-(2-methoxyethyl)-2-oxoimidazolidine-1-carboxamide] | 100 to 1000 nM | –
100 to 1000 nM | > 1000 nM | 100 to 1000 nM | COCCN1CCN(C(=O)Nc2ccc(Oc3ccnc(-c4cnc(C)s4)c3)c(C)n2)C1=O [Example 67, 3-(2-methoxyethyl)-N-(6-methyl-5-((2-(2-methylthiazol-5-yl)pyridin-4-yl)oxy)pyridin-2-yl)-2-oxoimidazolidine-1-carboxamide] | 100 to 1000 nM | –
< 10 nM | 10 to 100 nM | – | Cn1cc(-c2cc(Oc3ccc(NC(=O)N4CCN(C5CCOCC5)C4=O)c(F)c3Cl)ccn2)cn1 [Example 113, N-(3-chloro-2-fluoro-4-((2-(1-methyl-1H-pyrazol-4-yl)pyridin-4-yl)oxy)phenyl)-2-oxo-3-(tetrahydro-2H-pyran-4-yl)imidazolidine-1-carboxamide] | 100 to 1000 nM | –
> 1000 nM | > 1000 nM | – | N#CCC(=O)Nc1cc(Oc2cc(F)c(NC(=O)N3CCN(C4CCOCC4)C3=O)cc2Cl)ccn1 [Example 114, N-(5-chloro-4-((2-(2-cyanoacetamido)pyridin-4-yl)oxy)-2-fluorophenyl)-2-oxo-3-(tetrahydro-2H-pyran-4-yl)imidazolidine-1-carboxamide] | – | –
10 to 100 nM | – | 10 to 100 nM | COCCN1CCN(C(=O)Nc2cc(Cl)c(Oc3ccnc(-c4cnn(C)c4)c3)cc2F)C1=O [Example 100, N-(5-chloro-2-fluoro-4-((2-(1-methyl-1H-pyrazol-4-yl)pyridin-4-yl)oxy)phenyl)-3-(2-methoxyethyl)-2-oxoimidazolidine-1-carboxamide] | 100 to 1000 nM | –
10 to 100 nM | – | 10 to 100 nM | COC1(CCN2CCN(C(=O)Nc3cc(Cl)c(Oc4ccnc(-c5cnn(C)c5)c4)cc3F)C2=O)CC1 [Example 99, N-(5-chloro-2-fluoro-4-((2-(1-methyl-1H-pyrazol-4-yl)pyridin-4-yl)oxy)phenyl)-3-(2-(1-methoxycyclopropyl)ethyl)-2-oxoimidazolidine-1-carboxamide] | 10 to 100 nM | –
10 to 100 nM | – | 10 to 100 nM | Cn1cc(-c2cc(Oc3ccc(NC(=O)N4CCN(C5CCOC(C)(C)C5)C4=O)nc3)ccn2)cn1 (centres unmarked) [Example 13, 3-(2,2-dimethyltetrahydro-2H-pyran-4-yl)-N-(5-((2-(1-methyl-1H-pyrazol-4-yl)pyridin-4-yl)oxy)pyridin-2-yl)-2-oxoimidazolidine-1-carboxamide] | 100 to 1000 nM | –
10 to 100 nM | – | – | [2H]C([2H])([2H])n1cc(-c2cc(Oc3ccc(NC(=O)N4CCN(C5CCOCC5)C4=O)nc3)ccn2)cn1 [Example 6, 2-oxo-3-(tetrahydro-2H-pyran-4-yl)-N-(5-((2-(1-(trideuteromethyl)-1H-pyrazol-4-yl)pyridin-4-yl)oxy)pyridin-2-yl)imidazolidine-1-carboxamide] | 10 to 100 nM | –
